# According to US20240261267A1, “METHODS FOR TREATING MULTIPLE SCLEROSIS” (Vanda Pharmaceuticals Inc., priority 2021, published 2024):
# What was measured:
# primary mouse OPCs = test: agarose drop migration assay; assay type: cell-based; conditions: any of the concentrations tested (0.3 nM to 3000 nM); after 5 days
# Description: The effects of ponesimod, a selective S1P1 receptor agonist, and A971432, a selective S1P5 receptor agonist, on oligodendrocyte precursor cell (OPC) migration and differentiation were evaluated. Nine concentrations were tested (logarithmic dilutions ranging from 0.3 nM to 3000 nM, n=6 per concentration). Fingolimod phosphate (P-FTY720, 3000 nM, n=6) was included as a positive control, 0.1% DMSO was included (min.one/plate) as a negative control. Primary mouse OPCs were harvested on postnatal day 0 or 1 and mixed glia cultures were maintained for 14 days. Primary OPCs were then purified using the shake-off method, and used for either a migration assay, or a differentiation assay, as detailed below. To harvest primary mouse OPCs, cortices are isolated from mouse pups on postnatal day 0 or 1 and placed in ice-cold Dulbecco's Modified Eagle Medium (DMEM) (Sigma Aldrich, Overijse, BE). The cortices are homogenized and centrifuged for 5 minutes at 300 G. The supernatant is removed, and a papain solution is added for 30 minutes (125 uL DMEM solution per brain containing 20 units/ml papain and 40 μg/ml DNase, at 37 degrees). Digestion is inactivated by adding 9 ml cold DMEM. The solution is then centrifuged for 5 minutes at […]. The supernatant is carefully removed, and the pellet is resuspended in 2-5 ml culture medium (DMEM with 10% fetal calf serum (Biowest, Nuaillé, FR) and 1% pen/strep (Sigma Aldrich, Overijse, BE)). […] Cell suspension is divided over PLL (Sigma Aldrich, Overijse, BE)-coated flasks (2 brains per flask) and DMEM is added to a final volume of 10 ml. DMEM is replaced on day 4, 7, and 11. On day 7 and 11, insulin (Sigma Aldrich, Overijse, BE) is added to the medium (5μg/ml). On day 14, OPCs are separated from astrocytes by the shake-off method: flasks are placed on a shaker for 45 minutes at 75 rpm (37 degrees). […] The extent of cell migration is then measured after 5 days using Incucyte imaging analysis and fluorescent endpoint staining. For each well, the 15-20 cells that migrated the furthest away from the agarose drop are measured and averaged. […]
# [1] = system: normal appearing white matter (NAWM) of MS patients; test: Phase III OPTIMUM study, myelination estimated from standardized T1/T2 MRI; assay type: in vivo, human
# Excerpt: The impact of treatment on myelination changes in normal appearing white matter (NAWM) which sustains damage early in the MS disease course was compared
# Myelination was estimated from T1 and T2-weighted magnetic resonance images collected at baseline, week 60 and week 108 in 427 patients treated with ponesimod and 428 with teriflunomide. Standardized T1/T2 was used to quantify myelination in non-lesional corpus callosum, cingulum, and remaining NAWM. Average myelination change (ΔM) from baseline at weeks 60 (w60) and 108 (w108) were compared across treatment arms using two-sided two sample t-tests, all p-values nominal.
# MS patients = test: Phase III OPTIMUM study, efficacy outcomes; assay type: in vivo, human; conditions: ponesimod 20 mg compared with teriflunomide 14 mg
# [2] = system: adult subjects with relapsing MS; test: Phase III OPTIMUM study, safety and treatment discontinuation
# Description: A prospective, multicenter, randomized, double-blind, active controlled, parallel-group, phase III, superiority study (Phase III OPTIMUM study) was conducted.
# Subjects had active disease evidenced by one or more MS attacks with onset within the period of 12 to 1 months prior to baseline EDSS assessment, or by two or more MS attacks with onset within the 24 to 1 months prior to baseline EDSS assessment, or with one or more gadolinium-enhancing (Gd+) lesion(s) of the brain on an MRI performed within 6 months prior to baseline EDSS assessment. Enrolled subjects were ambulatory with an EDSS score of up to 5.5 inclusive. The subjects were treatment-naïve (i.e., no MS disease-modifying therapy received at any time in the past) or previously treated with interferon (IFN) β-1a, IFN β-1b, glatiramer acetate, dimethyl fumarate, or natalizumab.
# The treatment period consisted of an up-titration period (from Day 1 to 14) and a maintenance period (Day 15 until EOT).
# To reduce the first-dose effect of ponesimod, an up-titration scheme was implemented from Day 1 to Day 14: • Days 1 and 2; 2 mg. • Days 3 and 4; 3 mg. • Days 5 and 6; 4 mg. • Day 7; 5 mg. • Day 8; 6 mg. • Day 9; 7 mg. • Day 10; 8 mg. • Day 11; 9 mg. • Days 12, 13, and 14; 10 mg. • Day 15 until EOT; 20 mg.
# The Safety Set (SAF) included all randomized subjects who received at least one dose of study treatment. Subjects were analyzed based on actual treatment taken, not randomized treatment.
# [3] = Safety Set, ponesimod 20 mg, teriflunomide 14 mg
# [4] = ponesimod 20 mg, teriflunomide 14 mg
smiles,measurement,setting,value
O=C(O)C1CN(Cc2ccc(OCc3ccc(Cl)c(Cl)c3)cc2)C1 [A97],migration distance,primary mouse OPCs,did not affect migration distance
"CCC/N=C1\S/C(=C\c2ccc(OC[C@H](O)CO)c(Cl)c2)C(=O)N1c1ccccc1C [ponesimod, (R)-5-[3-chloro-4-(2,3-dihydroxy-propoxy)-benz[Z]ylidene]-2-([Z]-propylimino)-3-o-tolyl-thiazolidin-4-one]",migration distance,primary mouse OPCs,did not affect migration distance
same,"average myelination decrease, comparison across treatment arms","[1]; all regions and both visits (w60, w108), ponesimod 20 mg vs teriflunomide 14 mg",significantly less demyelination
same,myelination change from baseline (standardized T1/T2),"[1]; non-lesional corpus callosum, cingulum, remaining NAWM, weeks 60 and 108, p<0.05",only the corpus callosum showed a significant decrease at w108
same,Fatigue Symptoms and Impacts Questionnaire-Relapsing Multiple Sclerosis,MS patients,difference
same,active lesions/year,MS patients,reduction
same,annualized relapse rate,MS patients,greater reduction
same,brain volume loss,MS patients,lower
same,disability accumulation risk estimates,MS patients,reduction
same,2nd or higher degree AV block,"[2]; Day 1, first dose",No 2nd or higher degree AV block
same,ECG HR effect: nadir,"[2]; Day 1, first dose",2 hours post-dose
same,subjects meeting discharge criteria at 4 hours post-dose,"[2]; Day 1, first dose",ca. 99%
same,subjects with asymptomatic post-dose HR≤40 bpm,"[2]; Day 1, all with pre-treatment HR<55 bpm",3
same,"AEs leading to premature discontinuation of study drug, SOC Reproductive system and breast disorders",[2]; [3],0 n
same,"AEs leading to premature discontinuation of study drug, SOC Surgical and medical procedures",[2]; [3],0 n
same,Premature treatment discontinuation: Death,[2]; [3],0 n
same,Subject with at least one AE leading to study drug discontinuation,[2]; [3],8.7%
same,Subject with at least one Fatal AE,[2]; [3],0 n
same,Subject with at least one Serious AE,[2]; [3],8.7%
same,Subject with at least one treatment-emergent AE,[2]; [3],88.8%
same,Treatment-emergent AESI: Hepatobiliary disorders/Liver enzyme abnormality,[2]; [3],25.7%
same,Treatment-emergent AESI: Hypertension,[2]; [3],10.1%
same,Treatment-emergent AESI: Pulmonary events,[2]; [3],8.0%
same,mean heart rate reduction compared to pre-dose,"[2]; at 2-hours post dose, Day 1",−8.7 bpm
same,AESI heart rate and rhythm: Electrocardiogram QT prolonged,"[2]; on Day 1, Safety Set",0 n
same,AESI heart rate and rhythm: Presyncope,"[2]; on Day 1, Safety Set",0 n
same,AESI effect on heart rate and rhythm (including hypotension): Subjects with at least one AE,"[2]; on Day 1, Safety Set, ponesimod arm (2 mg on Day 1), teriflunomide 14 mg",2.1%
same,TEAE ALT increased,[2]; [4],19.5%
same,TEAE headache,[2]; [4],11.5%
same,TEAE nasopharyngitis,[2]; [4],19.3%
same,TEAE upper respiratory tract infection,[2]; [4],10.6%
same,proportion of subjects who experienced ALT increase>3×ULN,[2]; [4],17.3%
same,proportion of subjects who experienced ALT increase>8×ULN,[2]; [4],0.7%
same,subjects discontinued due to AEs or tolerability related reasons,[2]; [4],6.5%
